The source made the active and inactive calls. The rule behind the calls is not given here.

The nature of data set [1]: Toxicity in rat C6 cells inoculated orthotopic Sprague-Dawley rat model assessed as changes in blood at 50 mg/kg, ip twice a day administered for 13 days of tumor implantation by routine blood test. The following applies: in vivo, 312 h, time 13 day. Type of data set: organism-based.
Data set [2] concerns the target T1, Prostaglandin G/H synthase 2 (Homo sapiens, UniProt P35354).
T1 sequence (P35354 whole entry): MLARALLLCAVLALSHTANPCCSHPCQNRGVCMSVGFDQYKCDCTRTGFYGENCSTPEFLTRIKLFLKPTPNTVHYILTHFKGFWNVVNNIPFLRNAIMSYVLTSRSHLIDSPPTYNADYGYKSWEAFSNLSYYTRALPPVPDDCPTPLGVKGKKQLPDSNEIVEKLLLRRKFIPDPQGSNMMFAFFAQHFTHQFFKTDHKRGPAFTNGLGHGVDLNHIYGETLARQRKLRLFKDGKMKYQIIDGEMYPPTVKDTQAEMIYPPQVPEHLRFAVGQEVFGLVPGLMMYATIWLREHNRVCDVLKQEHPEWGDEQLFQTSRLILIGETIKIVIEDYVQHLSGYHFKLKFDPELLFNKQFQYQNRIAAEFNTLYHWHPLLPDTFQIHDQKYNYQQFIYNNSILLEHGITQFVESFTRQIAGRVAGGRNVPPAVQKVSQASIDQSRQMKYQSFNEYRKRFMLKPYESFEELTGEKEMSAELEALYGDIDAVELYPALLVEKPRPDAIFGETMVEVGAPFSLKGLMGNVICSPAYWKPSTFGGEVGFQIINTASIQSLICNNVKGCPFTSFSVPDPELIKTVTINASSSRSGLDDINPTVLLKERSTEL
The data set can be described thus: Inhibition of human COX2 assessed as fluorescence by microplate reader.

The subject of data set [3] is Rattus norvegicus. Kind of data set: Anxiolytic activity in rat C6 cells inoculated orthotopic Sprague-Dawley rat model assessed as increase in time spent in central part at 50 mg/kg, ip twice a day administered for 13 days of tumor implantation by open field test relative to control. Format: functional, organism-based. As to conditions: time 13.0 day.
Data set [4] relates to U-251. Kind of data set: Induction of apoptosis in human U-251 cells assessed as increase in cytochrome c release at 1 to 4 uM incubated for 48 hrs by Western blot analysis relative to control. Type of data set: functional, cell-based. As to conditions: dose 1-4 µM. On the technique in general: Immunoblotting shows a protein as a band on a membrane.
Data set [5] deals with U-87 MG. Kind of data set: Cytotoxicity against human U-87 MG cells assessed as cell viability at 4 uM measured up to 24 hrs. Type of data set: functional, U-87MG ATCC. The following applies: time hrs <=24, read-out: Activity.
For data set [6], the system named is C6. Kind of data set: Antitumor activity against rat C6 cells inoculated orthotopic Sprague-Dawley rat model assessed as suppression of glioma cells to invade the surrounding brain tissue at 50 mg/kg, ip twice a day administered for 13 days of tumor implantation by hematoxylin-eosin staining analysis. Format: functional, organism-based. As to conditions: time 13.0 day.

Data set [7] has as its system U-251. The data set can be described thus: Induction of apoptosis in human U-251 cells assessed as early apoptotic cells at 8 uM incubated for 48 hrs by […] double staining based flow cytometry assay (Rvb+B32 = 0.73%). Format: functional. A general note: Flow cytometry measures light scatter and fluorescence of single cells or particles in a stream.
Data set [8] concerns U-87 MG. Kind of data set: Induction of apoptosis in human U-87 MG cells assessed as late apoptotic cells at 4 uM incubated for 48 hrs by […] double staining based flow cytometry assay (reference value: 0.61%). Format: functional, U-87MG ATCC.
Data set [9] has as its system C6. The data set can be described thus: Anxiolytic activity in rat C6 cells inoculated orthotopic Sprague-Dawley rat model assessed as suppression of MMP9 expression in tumor tissue at 50 mg/kg, ip twice a day administered for 13 days of tumor implantation by immunohistochemical staining analysis. Type of data set: functional, organism-based. The following applies: time 13.0 day.

The test system of data set [10] is U-87 MG. The data set can be described thus: Induction of apoptosis in human U-87 MG cells assessed as increase in ROS generation at 1 to 4 uM incubated for 48 hrs by Western blot analysis relative to control. Format: functional, cell-based. As to conditions: U-87MG ATCC, dose 1-4 µM.
Data set [11] deals with C6. The data set can be described thus: Antitumor activity against rat C6 cells inoculated orthotopic Sprague-Dawley rat model assessed as decrease in VEGF-A in tumor tissue at 50 mg/kg, ip twice a day treated 3 days after tumor cell injection measured for 13 days after tumor implantation by Western blot analysis. Type of data set: functional, organism-based. The following applies: time 3.0 day.

On to `COc1cc(Nc2ccccc2C(=O)NCCc2c[nH]c3ccccc23)cc(OC)c1OC`, for which the results for the Activity result in data set [1], in data set [7] and in [8] were “Non-Toxic”, 9.93% and 3.78%, respectively. For the same compound, the half-inhibitory concentration (IC50) (usually the point on the concentration scale where inhibition reaches its midpoint) in data set [2] worked out at 8.29 µM. The outcome in data set [3], in data set [4], in [6], in data set [9], in data set [10] and in data set [11] was Active. For the same compound, in data set [5], the viability at 4 µM came out at 80%.

Source of the values: ChEMBL document CHEMBL4825684, “Design, synthesis and biological evaluation of N-anthraniloyl tryptamine derivatives as pleiotropic molecules for the therapy of malignant glioma” (Eur J Med Chem, 2021).
